In assay [1] the target is T1, OPN3 (Mus musculus, UniProt Q9WUK7).
T1 construct: expressed in transfected cells; host or cells: HTLA cells (HEK293 line with tTA-dependent luciferase reporter and beta-arrestin2-TEV fusion)
The experiment in a line: TANGO assay (beta-arrestin recruitment, luciferase reporter) in HTLA cells, OPN3. Format: cell-based. Particulars: 4 hours. The text has this: (§1) For example, in one implementation the chemosensory opsin activation detection element comprises a TANGO assay (Transcriptional Activation Following Arrestin Translocation), as known in the art, for example, as described by Kroeze et al., 2015. PRESTO-Tango as an open-source resource for interrogation the druggable human GPCRome. Nat Struct Mol Biol 22, 362-369. In the TANGO systems of the invention, a cell is engineered to express a chemosensory opsin in the form of a fusion protein, wherein the opsin fusion protein comprises an optional membrane trafficking signal (e.g. HA), an optional FLAG tag or like epitope to facilitate detection, and a transcriptional activator which induces the expression of a reporter gene, such as luciferase, wherein the transcriptional activator is joined to an intracellular portion of the opsin, for example, the […], by a cleavage sequence. The cells of the TANGO system are further engineered to express a second fusion protein comprising a beta-arrestin fused to a protease, for example, a TEV protease, wherein the protease is capable of cleaving the fusion protein at the cleavage site. The cells of the TANGO system are further engineered to express a reporter protein, e.g. luciferase, under the control of a transcriptional activator, for example, tetracycline-controlled transactivaor (tTA). Ligand binding to the opsin deployed in the TANGO system triggers a conformational change in the opsin that recruits the beta arrestin-protease fusion protein to the opsin, where proximity of the protease induces cleavage of the transcriptional activator, which trafficks to the nucleus and induces the expression of the reporter gene. The TANGO system advantageously allows direct quantification of opsin activation, independent of g protein activity.
(§2) Human transcriptomics data was mined to identify putative taste receptor proteins. […] However, the role of these opsins in taste perception has not been previously explored. TANGO detection elements employing each of these opsins, in both human and mouse isoforms, were created in HTLA cells (a HEK293 cell line stably expressing a tTA-dependent luciferase reporter and a β-arrestin2-TEV fusion gene), based on protocols in Kroeze et al., 2015. PRESTO-Tango as an open-source resource for interrogation of the druggable human GPCRome. Nat Struct Mol Biol 22, 362-369.
(§3) In the TANGO assay, the mouse opsin coding sequence with an N-terminal FLAG tag was synthesized. The construct was cloned into a TANGO vector (Addgene, Waterton MA) at the ClaI site (FLAG::opsin). The HTLA cells were transfected in a 6-well format with LIPOFECTAMINE 2000™ (Thermo Fisher Scientific, Inc, Waltham MA, USA) according to the manufacturer's instructions. 6-8 hours post transfection cells weret split 1:3 and the media was switched to DMEM+ 2.5% fetal bovine serum (Thermo Fisher Scientific Inc., Waltham MA, USA). Cells were allowed to grow for 48 hours before splitting the cells onto poly-L-lysine-coated 96-well clear, flat bottom white polystyrene plates in serum-free media. The next day, chemical solutions diluted in TANGO assay buffer (20 mM HEPES, 1× HBSS, pH 7.40) were added to the cells. After 4 hours, the medium and drug solutions were removed and replaced with […] per well of BRIGHTGLO™ reagent (Promega Corporation, Madison WI) diluted 20-fold with TANGO assay buffer. Plates were incubated for 20 minutes at room temperature in the dark before measuring luminescence with a plate reader (Molecular Devices, iD3). The normalized response was calculated using following formula: RLU (relative luminescence units)=test compound RLU−average vehicle control RLU.

The target of assay [2] is T2, OPN3 (Homo sapiens, UniProt Q9H1Y3).
T2 construct: expressed in transfected cells; host or cells: HEK293T
T2 sequence (Q9H1Y3 whole entry): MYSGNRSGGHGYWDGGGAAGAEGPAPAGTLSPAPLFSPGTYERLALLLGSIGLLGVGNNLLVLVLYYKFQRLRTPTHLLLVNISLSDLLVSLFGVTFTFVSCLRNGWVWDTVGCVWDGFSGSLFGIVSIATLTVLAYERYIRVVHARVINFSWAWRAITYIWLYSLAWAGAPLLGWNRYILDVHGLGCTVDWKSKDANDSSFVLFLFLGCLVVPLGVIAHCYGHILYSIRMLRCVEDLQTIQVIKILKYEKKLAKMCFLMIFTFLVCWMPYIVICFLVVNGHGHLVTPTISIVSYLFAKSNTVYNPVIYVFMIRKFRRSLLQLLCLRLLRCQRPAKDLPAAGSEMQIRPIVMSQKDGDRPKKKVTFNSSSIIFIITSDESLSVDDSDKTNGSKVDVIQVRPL
Put plainly: Calcium flux GPCR activation assay with Fluo-8 dye, opsin-expressing HEK293T cells, OPN3. Conditions: Fluo-8 calcium flux, data not shown. The class given is cell-based. As for the experimental part:
(§4) These foregoing TANTO results were further confirmed using a second, a calcium flux GPCR activation assay employing Fluo-8 dye, as follows. For this intracellular Ca^2+ measurement, opsin-expressing HEK293T cells were seeded onto 96-well plates (4×10^4 cells per well) in 100 μl of culture medium with reduced serum contents (0.5% of FBS) per well and incubated overnight under standard culture conditions. [Ca2+]i level was assessed the next day after stimulation with bitter compounds used at a different concentration with the SCREEN QUEST Fluo-8 No Wash Calcium Assay Kit (AAT Bioquest, Inc., Sunnyvale, CA, USA) according to the supplier's protocol. Calcium flux was monitored simultaneously by the change in fluorescence (Ex/Em=490/520 nm) following stimulation and with respect to the background fluorescence. [Ca^2+]i was monitored for a period of three minutes, starting before the addition of compounds to the wells and continuing during measurement of the fluorescent signal following cells' stimulation. The obtained fluorescence reads were normalized to the results obtained after stimulation of the cells with the compound solvent.

Assay [3] concerns OPN3 knockout mice. The experiment in a line: Mouse brief-access taste assay (lickometer), OPN3 knockout mice compared to wild type. The class given is in vivo. Particulars: water restricted. As for the experimental part: Knockout mice were obtained for OPN1SW and OPN3. Two independent OPN3 knockout mice lines were tested for reaction to naringin by a mouse taste preference assay. A Lickometer device (MS-160, Di Log Instruments, Inc.,Tallahassee, FL, USA) was used to train mice and then measure their licking responses to different tastants in brief-access trials. On a given trial, each sipper tube was filled with a solution and made available to a mouse via a small port that opened to a metal/plexiglass chamber housing the animal. The mouse chamber of the lickometer was modified for these studies by adding a plexiglass barrier that restricted the free movement of animals to an approximate 10 by 15 cm area facing the fluid access port. A computer running software that communicated with the lickometer recorded tongue contacts with the metal tip of the sipper tube during licking and the time intervals (precision=1 ms) between consecutive licks (inter-lick intervals). The amount of time that the sipper tube was available through the access port could be programmed and was controlled by the opening of a normally closed, computer-actuated shutter. This feature facilitated presentation of solutions to a mouse for only a few seconds to support measurements of brief-access licking behavior. By indexing initial licking responses to stimuli over short periods, brief-access procedures intend to focus on oral sensory influences and avoid any post-ingestive effect. Groups of three to four mice were run in these studies at one time. Groups always included equal numbers of mutant and wild-type mice to control for temporal factors.
Training. Mice were restricted from drinking water for 20-22 hours prior to the onset of training. During training, experimentally naive mice learned to receive fluid in the lickometer over a 3-day period. On the first and second day of training, mice were given 30 minutes free access to a single sipper tube of water to familiarize them with accessing fluid in the lickometer device. Each 30 minute period began when the mouse made its first lick on the sipper tube; mice were allowed 30 minutes to make their first lick. On the third day of training, mice were presented with 10 second presentations (i.e., trials) of water to familiarize them with receiving and consuming fluid under a brief-access procedure in the lickometer. On each trial, the shutter that blocked access to the sipper tube was opened and mice were given 10 seconds to lick, and lick data were recorded by the lickometer computer. […]
Testing. […] For studies, individual Opn3KO, Opn1swKO, Opn4KO, Opn5KO and wild-type mice were evaluated for brief-access licking responses with different agonists. […]

Assay [4] deals with TRPM5 knockout mice. The experiment in a line: Mouse brief-access taste assay (lickometer), TRPM5 knockout mice compared to wild type. Format: in vivo. Conditions: TRPM5 knockout (taste blind) mice, water restricted.
Assay [5] has as its target T3, OPN1SW (Mus musculus, UniProt P51491).
T3 construct: expressed in transfected cells; host or cells: HTLA cells (HEK293 line with tTA-dependent luciferase reporter and beta-arrestin2-TEV fusion)
T3 sequence (P51491 1-346): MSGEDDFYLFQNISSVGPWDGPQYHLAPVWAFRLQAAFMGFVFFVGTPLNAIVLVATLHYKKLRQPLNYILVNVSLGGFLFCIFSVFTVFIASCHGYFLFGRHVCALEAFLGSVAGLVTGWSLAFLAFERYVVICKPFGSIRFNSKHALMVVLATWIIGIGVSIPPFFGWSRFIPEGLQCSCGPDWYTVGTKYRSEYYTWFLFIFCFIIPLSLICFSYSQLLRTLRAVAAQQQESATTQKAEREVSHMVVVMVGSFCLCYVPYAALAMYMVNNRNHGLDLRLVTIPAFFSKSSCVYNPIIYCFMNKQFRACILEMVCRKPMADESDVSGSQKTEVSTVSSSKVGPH
Put plainly: TANGO assay (beta-arrestin recruitment, luciferase reporter) in HTLA cells, OPN1SW. The class given is cell-based. Conditions: 4 hours.
Text: as §1, §2, §3

Assay [6] concerns the target T4, OPN1SW (Homo sapiens, UniProt P03999).
T4 construct: expressed in transfected cells; host or cells: HEK293T
T4 sequence (P03999 1-345): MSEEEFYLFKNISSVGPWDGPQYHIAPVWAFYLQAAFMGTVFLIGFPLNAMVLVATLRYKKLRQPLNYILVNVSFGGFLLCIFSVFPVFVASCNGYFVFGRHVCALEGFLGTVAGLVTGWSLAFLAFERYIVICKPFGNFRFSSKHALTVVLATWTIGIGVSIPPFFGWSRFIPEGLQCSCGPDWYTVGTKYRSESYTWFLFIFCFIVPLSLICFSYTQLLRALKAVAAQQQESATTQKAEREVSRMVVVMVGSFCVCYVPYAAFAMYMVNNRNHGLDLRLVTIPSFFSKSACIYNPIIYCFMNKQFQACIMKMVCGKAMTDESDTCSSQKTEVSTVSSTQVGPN
Put plainly: Calcium flux GPCR activation assay with Fluo-8 dye, opsin-expressing HEK293T cells, OPN1SW. Format: cell-based. Particulars: Fluo-8 calcium flux, data not shown. As for the experimental part: as §4

Three molecules from patent publication US20240142474A1, “Opsins as Chemosensory Receptors and Related Methods” (The Regents of the University of California, priority 2021, published 2024) can be followed below.

“Also recorded” adds a separate entry of the source.

T1 sequence (Q9WUK7 whole entry, the tested form may be a part): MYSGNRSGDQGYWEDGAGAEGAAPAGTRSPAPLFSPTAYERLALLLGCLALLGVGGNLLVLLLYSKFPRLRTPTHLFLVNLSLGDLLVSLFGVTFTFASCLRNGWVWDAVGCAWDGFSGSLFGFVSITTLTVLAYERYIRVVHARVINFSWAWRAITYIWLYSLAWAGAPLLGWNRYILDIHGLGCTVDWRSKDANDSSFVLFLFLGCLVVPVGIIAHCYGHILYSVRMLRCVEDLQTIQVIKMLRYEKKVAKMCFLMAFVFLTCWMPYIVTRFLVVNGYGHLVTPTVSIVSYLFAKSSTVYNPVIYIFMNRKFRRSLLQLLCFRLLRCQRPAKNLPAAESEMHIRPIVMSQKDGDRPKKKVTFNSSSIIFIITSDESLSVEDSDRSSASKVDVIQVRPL

For `C[C@@H]1O[C@@H](O[C@H]2[C@H](Oc3cc(O)c4c(c3)O[C@H](c3ccc(O)cc3)CC4=O)O[C@H](CO)[C@@H](O)[C@@H]2O)[C@H](O)[C@H](O)[C@H]1O` [naringin], the “activation of OPN3, fold-change from baseline luciferase signal vs. log concentration of tastant” value in assay [1] is “activation of OPN3; also recorded: activated; also recorded: potent activator of OPN3”. For the same molecule, in assay [2], the “activation of calcium dye OPN3 detection elements” value is on record as “significantly activated in a concentration dependent manner”. The “aversion to the bitter flavor (lick ratio), OPN3 knockout mice compared to wild type mice” value in assay [3] was “reduced aversion”. Moreover, the “aversive response to the bitter flavor (lick ratio), TRPM5 knockout mice” value in assay [4] is listed as “lost the aversive response”.
As for `Cn1cnc2c1c(=O)[nH]c(=O)n2C` [theobromine], the “activation of OPN1SW, fold-change from baseline luciferase signal vs. log concentration of tastant” value in assay [5] is “activated; also recorded: activation of OPN1SW”. Besides, the “activation of calcium dye OPN1SW detection elements” value in assay [6] was “significantly activated in a concentration dependent manner”.
Taken in the same sequence, the figures for `Cn1c(=O)c2[nH]cnc2n(C)c1=O` [theophylline] were “activation of OPN1SW; also recorded: activated” and “significantly activated in a concentration dependent manner”.
